Earlier results on 1 substance are cited in PMC8433641, “A Stability-Indicating Ultra Performance Liquid Chromato-Graphic (UPLC) Method for the Determination of a Mycophenolic Acid-Curcumin Conjugate and Its Applications to Chemical Kinetic Studies” (Molecules, 2021).

Details of this series: method as in PMID 29678124. The settings on record: pH 7.4.

On to curcumin, for which the t1/2 was 33.6 min.
